Test results published in US5618675A, “Methods and compositions for detecting lipopolysaccharides using CAP18 fragments” (Panorama Research, Inc., dated 1997).

Key:
[1] = test system: Staphylococcus aureus, coagulase positive; test: Bacterial proliferation, 3H-thymidine incorporation; format: cell-based
Protocol: (§1) Bacteria were grown in trypticase broth overnight.
(§2) To corroborate the anti-bacterial activity shown in the CFU assays, inhibition of proliferation of bacteria was tested directly using a ^3 H-thymidine incorporation assay. […] In summary although there is some strain to strain variation in the IC50, all of the Gram-negativestrains tested in two different types of assays were sensitive to these anti-microbial peptides.

Pseudomonas aeruginosa = test: as above; format: cell-based
Protocol: as §1, §2

Streptococcus pyogenes = test: as above; format: cell-based
Protocol: as §1, §2

Klebsiella pneumoniae = test: as above; format: cell-based
Protocol: as §1, §2

Streptococcus pneumoniae = test: as above; format: cell-based
Protocol: as §1, §2

E. coli (HB101) = test: as above; format: cell-based
Protocol: as §1, §2

Pseudomonas apacia = test: as above; format: cell-based
Protocol: as §1, §2

ddY mice = test: Tissue factor lethality model; format: in vivo; conditions: for Survival (%) / No. of Mice (dead/total) / Survival time: Tissue factor 1.0 mg/mouse IV; for Survival (%): control 0; for No. of Mice (dead/total): control 7/7; for Survival time: control 187 ± 70
Protocol: Reference tissue factor (Simplastin, 1 mg/mouse) was IV injected into ddY mice (male, 20-week-old, 38-45 g) incubated with or without peptide.
The anticoagulant activity of the RNIP peptides was studied in an acute animal model. Direct injection of tissue factor IV (Simplastin, 1 mg/mouse) produces acute intravascular coagulation and death within three minutes.
^a Tissue factor (Simplastin, 10 mg/ml was mixed with equal volume of
synthetic peptide 100 μg/ml or 50 μg/ml and 0.2 ml of the mixture
injected IV. ddY mice (20 weeks, 38-45 gm).

[2] = test system: E. coli 09:K39 K^- strain; test: Antibacterial CFU assay; conditions: FIG. 6H
[3] = test system: E. coli 09:K39 K^+ strain; test: Antibacterial CFU assay; conditions: FIG. 6H
human mononuclear cells = test: LPS-induced tissue factor by human mononuclear cells; format: cell-based; conditions: for Δ Units (%): LPS alone 100, 960 min
Protocol: Human mononuclear cells were separated from citrated peripheral blood by centrifugation over Sodium-metrizoate-Ficoll (lymphocyte Separation Medium, Japan Antibody Institute, Gumma). The resulting mixed mononuclear cell suspension was washed 3 times with RPMI 1640 media. Cell suspension (1×10^6 /ml) was stimulated with LPS for 16 to 18 hr.
Veronal buffered saline (VBS) was added to the cell pellet, lysed by 3 cycles of freeze/thaw and sonicated for 10 sec with a hand-held sonicator microbe (Handy Sonic, model UR-20P, Tomy Seiko LTD, Tokyo). Tissue factor activity was tested in modified unactivated partial thromboplastin time (7). One tenth ml of cell lysate (1×10^6 /ml) was preincubated with mouse plasma at 37° C. for 3 min. Then 0.1 ml of 25 mM-CaCl2 which contains phospholipid was added to the mixture and clotting time was measured using a fibrometer (Bio Quest Division, Becton Dickinson, Cokeysville, USA). A standard curve obtained from serial two-fold dilutions of rabbit brain thromboplastic (Simplastin, Ono Pharmaceutical Co.) was used to transpose tissue factor activity into arbitrary tissue factor units (1 μg/ml) suspension of rabbit brain was assigned a value of 1,000 units).
The mean tissue factor units+standard error was determined from three to four samples. Student's t test for unpair data was used to determine the statistically significant differences. A two-tailed P value of <0.05 was considered significant.
S. minnesota SmoothLPS (2 μg/ml) was preincubated with equal volume of
each LPSbinding protein (28HA) at 37° C. for 45 minutes, and the
mixture was added to the cells and cultured for 16 hours.

E. coli = test: Antibacterial CFU assay; conditions: read-out: IC50, inhibition of CFU; FIG. 6I
human monocytes = test: TNF release from LPS and IFNγ stimulated monocytes; format: cell-based
RAW 264.7 cells = test: Reversal of LPS-induced inhibition of RAW 264.7 cell proliferation; format: cell-based, murine; conditions: 5 ng/ml of LPS; FIG. 8
Protocol: When LPS is added to RAW 264.7 cells it causes a dose-dependent inhibition of proliferation with differentiation of the cells into a macrophage phenotype.

[4] = RNIP 6 μg/ml (so in the source)
[5] = first experiment, LPS 0.1 μg/ml
[6] = second experiment, LPS 0.1 μg/ml

## RNIP: reactive nitrogen inhibitory protein, amino acids 135-171 of SEQ ID NO:4 (rabbit CAP18 C-terminus); purified from granulocytes or synthetic (#197) (GLRKRLRKFRNKIKEKLKKIGQKIQGLLPKLAPRTDY)
[1]; RNIP 1.25 μg/ml
  Percent inhibition of proliferation: 57%
[1]; RNIP 2.5 μg/ml
  Percent inhibition of proliferation: 72%
[1]; RNIP 5.0 μg/ml
  Percent inhibition of proliferation: 83%
[1]; [4]
  Percent inhibition of proliferation: 23%
Pseudomonas aeruginosa; RNIP 1.25 μg/ml
  Percent inhibition of proliferation: 82%
Pseudomonas aeruginosa; RNIP 2.5 μg/ml
  Percent inhibition of proliferation: 96%
Pseudomonas aeruginosa; RNIP 5.0 μg/ml
  Percent inhibition of proliferation: 99%
Pseudomonas aeruginosa; [4]
  Percent inhibition of proliferation: 75%
Streptococcus pyogenes; RNIP 1.25 μg/ml
  Percent inhibition of proliferation: 79%
Streptococcus pyogenes; RNIP 2.5 μg/ml
  Percent inhibition of proliferation: 90%
Streptococcus pyogenes; RNIP 5.0 μg/ml
  Percent inhibition of proliferation: 96%
Streptococcus pyogenes; [4]
  Percent inhibition of proliferation: 74%
Klebsiella pneumoniae; RNIP 1.25 μg/ml
  Percent inhibition of proliferation: 14%
Klebsiella pneumoniae; RNIP 2.5 μg/ml
  Percent inhibition of proliferation: 17%
Klebsiella pneumoniae; RNIP 5.0 μg/ml
  Percent inhibition of proliferation: 60%
Klebsiella pneumoniae; [4]
  Percent inhibition of proliferation: 4%
Streptococcus pneumoniae; RNIP 1.25 μg/ml
  Percent inhibition of proliferation: 47%
Streptococcus pneumoniae; RNIP 2.5 μg/ml
  Percent inhibition of proliferation: 68%
Streptococcus pneumoniae; RNIP 5.0 μg/ml
  Percent inhibition of proliferation: 93%
Streptococcus pneumoniae; [4]
  Percent inhibition of proliferation: 31%
E. coli (HB101); RNIP 1.25 μg/ml
  Percent inhibition of proliferation: 88%
E. coli (HB101); RNIP 2.5 μg/ml
  Percent inhibition of proliferation: 99%
E. coli (HB101); RNIP 2.5 μg/ml, FCS 0 %
  Inhibition (%) of proliferation: 94 ± 10.3%
E. coli (HB101); RNIP 2.5 μg/ml, FCS 1 %
  Inhibition (%) of proliferation: 91 ± 10.9%
E. coli (HB101); RNIP 2.5 μg/ml, FCS 5 %
  Inhibition (%) of proliferation: 87 ± 3.1%
E. coli (HB101); RNIP 2.5 μg/ml, FCS 10 %
  Inhibition (%) of proliferation: 78 ± 5.5%
E. coli (HB101); RNIP 5.0 μg/ml
  Percent inhibition of proliferation: 99%
E. coli (HB101); [4]
  Percent inhibition of proliferation: 81%
Pseudomonas apacia; RNIP 1.25 μg/ml
  Percent inhibition of proliferation: 80%
Pseudomonas apacia; RNIP 2.5 μg/ml
  Percent inhibition of proliferation: 99%
Pseudomonas apacia; RNIP 5.0 μg/ml
  Percent inhibition of proliferation: 99%
Pseudomonas apacia; [4]
  Percent inhibition of proliferation: 81%
ddY mice; Peptide #197 5 μg/mouse
  Survival (%): 43%
  No. of Mice (dead/total): 4/7
  Survival time: 228 ± 48 s
ddY mice; Peptide #197 10 μg/mouse, p < 0.05
  Survival (%): 57%
ddY mice; Peptide #197 10 μg/mouse
  No. of Mice (dead/total): 3/7
  Survival time: 305 s
ddY mice; tissue factor IV 1 mg/mouse
  reduction of mortality: 57%
[2]
  anti-bacterial IC50: 0.68 µg/mL
[2]; read-out: anti-bacterial IC50
  IC50: 110 nM
[3]
  anti-bacterial IC50: 0.14 µg/mL
[3]; read-out: anti-bacterial IC50
  IC50: 20 nM
Human mononuclear cells; [5]
  Inhibition (%): 51%
  Δ Units (%): 49%
Human mononuclear cells; first experiment, LPS 0.1 μg/ml, LPS alone 16.6
  Tissue Factor, figure in parentheses (relative to unstimulated = 1.0): 9.0
Human mononuclear cells; first experiment, LPS 0.1 μg/ml, LPS alone 17118
  Δ Units: 8342
Human mononuclear cells; first experiment, LPS 0.1 μg/ml, LPS alone 18214 ± 4192, RNIP 2 HA units, CAP-18 1 HA unit
  Tissue Factor: 9438 ± 293 Units × 10^3 /3.6 × 10^4 cells
Human mononuclear cells; [6]
  Inhibition (%): 41%
  Δ Units (%): 59%
Human mononuclear cells; second experiment, LPS 0.1 μg/ml, LPS alone 14.7
  Tissue Factor, figure in parentheses (relative to unstimulated = 1.0): 9.0
Human mononuclear cells; second experiment, LPS 0.1 μg/ml, LPS alone 6726
  Δ Units: 3950
Human mononuclear cells; second experiment, LPS 0.1 μg/ml, LPS alone 7218 ± 264, HA units HP-1 4, HP-2 2, RNIP 2, CAP-18 1
  Tissue Factor: 4442 ± 982 Units × 10^3 /3.6 × 10^4 cells
Human mononuclear cells; second experiment, no LPS
  Tissue Factor, figure in parentheses (relative to unstimulated = 1.0): 1.3
  Δ Units: 144
Human mononuclear cells; second experiment, no LPS, unstimulated 492 ± 75
  Tissue Factor: 636 ± 141 Units × 10^3 /3.6 × 10^4 cells
E. coli
  IC50: 80 nM
Human monocytes; Human IFNγ (100 U), (1:1), stimulus alone 2.0
  TNF: 0.27 ng/mL
Human monocytes; Human IFNγ (100 U), (1:10), stimulus alone 2.0
  TNF: 0.35 ng/mL
Human monocytes; Human IFNγ (100 U), (1:100), stimulus alone 2.0
  TNF: 0.35 ng/mL
Human monocytes; LPS (10 ng/ml), (1:1), stimulus alone 1.0
  TNF: 0.12 ng/mL
Human monocytes; LPS (10 ng/ml), (1:10), stimulus alone 1.0
  TNF: 0.34 ng/mL
Human monocytes; LPS (10 ng/ml), (1:100), stimulus alone 1.0
  TNF: 0.23 ng/mL
RAW 264.7 cells
  effect on LPS-induced inhibition of proliferation: reverses the inhibition of proliferation
